Read-outs that look alike come from different tables or passages of the source. Marks after values point to notes of the source that are not given here.
Experiments:
[1] = biological target: T1, human α1A‐adrenoceptor (Homo sapiens, UniProt P35348); experiment: ^3H‐cAMP accumulation, CHO‐α1A cells; type: cell-based; conditions: CHO‐α1A cells; % of 10 µM forskolin response
T1 construct: expressed in transfected cells; host or cells: CHO-K1
T1 sequence (P35348 1-466): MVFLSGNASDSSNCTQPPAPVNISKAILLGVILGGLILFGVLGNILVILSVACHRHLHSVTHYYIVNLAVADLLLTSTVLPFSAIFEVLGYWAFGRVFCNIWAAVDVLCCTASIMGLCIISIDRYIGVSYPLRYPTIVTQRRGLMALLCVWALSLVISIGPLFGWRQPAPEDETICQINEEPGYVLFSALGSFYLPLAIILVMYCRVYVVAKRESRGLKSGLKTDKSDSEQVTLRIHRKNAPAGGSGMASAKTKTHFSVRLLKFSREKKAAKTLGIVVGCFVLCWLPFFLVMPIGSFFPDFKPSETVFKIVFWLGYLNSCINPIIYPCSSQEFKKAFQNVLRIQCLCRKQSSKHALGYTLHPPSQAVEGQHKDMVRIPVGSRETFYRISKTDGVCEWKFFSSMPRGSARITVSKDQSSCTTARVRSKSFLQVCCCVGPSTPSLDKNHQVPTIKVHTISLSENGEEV

[2] = test system: parental CHO cell line without any transfected receptors; experiment: ERK1/2‐phosphorylation, parent CHO cells without transfected receptors; type: cell-based, Chinese hamster; conditions: for Emax: read-out: ERK1/2-phosphorylation % PDBu; for EC50: read-out: ERK1/2-phosphorylation Log EC50 (converted); for ERK1/2‐phosphorylation response in parent CHO cells: untransfected cells
[3] = test system: parental CHO cell line without any transfected receptors; experiment: Intracellular calcium mobilization, parent CHO cells without transfected receptors; type: cell-based, Chinese hamster; conditions: Cricetulus griseus, read-out: Intracellular calcium release % ionomycin
[4] = biological target: T1, human α1A‐adrenoceptor; experiment: Intracellular free calcium mobilization, CHO‐α1A cells; type: cell-based
[5] = test system: parental CHO cell line without any transfected receptors; experiment: Forskolin‐stimulated cAMP accumulation, parent CHO cells without transfected receptors; type: cell-based, Chinese hamster; conditions: for cAMP accumulation (in presence of forskolin) % forskolin-stim cAMP at 100μM: response at 100μM only, EC50 not obtainable, % of forskolin-stimulated cAMP
[6] = biological target: T1, human α1A‐adrenoceptor; experiment: ERK1/2‐phosphorylation (Surefire Alphascreen), CHO‐α1A cells; type: cell-based
[7] = biological target: T2, human α1D‐adrenoceptor (full length) (Homo sapiens, UniProt P25100); experiment: ERK1/2‐phosphorylation (Surefire Alphascreen), CHO‐α1D cells; type: cell-based
T2 construct: human α1D‐adrenoceptor (full length) were used; expressed in transfected cells; host or cells: CHO-K1
T2 sequence (P25100 1-572): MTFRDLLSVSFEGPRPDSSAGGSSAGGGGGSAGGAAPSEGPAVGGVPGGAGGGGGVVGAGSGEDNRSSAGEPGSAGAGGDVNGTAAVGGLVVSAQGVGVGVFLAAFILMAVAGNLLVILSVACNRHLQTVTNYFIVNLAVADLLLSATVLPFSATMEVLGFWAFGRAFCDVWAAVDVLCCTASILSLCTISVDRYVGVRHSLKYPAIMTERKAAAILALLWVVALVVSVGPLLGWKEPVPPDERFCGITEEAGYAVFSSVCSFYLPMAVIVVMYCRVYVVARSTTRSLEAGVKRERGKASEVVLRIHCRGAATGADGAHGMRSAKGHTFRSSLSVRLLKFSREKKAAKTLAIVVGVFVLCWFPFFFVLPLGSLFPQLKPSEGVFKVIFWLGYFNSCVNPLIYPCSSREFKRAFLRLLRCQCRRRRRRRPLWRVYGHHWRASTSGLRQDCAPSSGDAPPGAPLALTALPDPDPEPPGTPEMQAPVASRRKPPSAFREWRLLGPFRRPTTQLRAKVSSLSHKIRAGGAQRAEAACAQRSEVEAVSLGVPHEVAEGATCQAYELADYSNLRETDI

[8] = biological target: T2, human α1D‐adrenoceptor (full length); experiment: ^3H‐cAMP accumulation in the presence of 10 μM forskolin, CHO‐α1D cells; type: cell-based; conditions: for Effect on cAMP accumulation in the presence of forskolin, CHO‐α1D cells: not α1‐mediated
[9] = biological target: T2, human α1D‐adrenoceptor (full length); experiment: Intracellular free calcium mobilization, CHO‐α1D cells; type: cell-based; conditions: for Intracellular calcium release % ionomycin: maximal response as % of 10 µM ionomycin
[10] = biological target: T3, human α1B‐adrenoceptor (Homo sapiens, UniProt P35368); experiment: ERK1/2‐phosphorylation (Surefire Alphascreen), CHO‐α1B cells; type: cell-based
T3 construct: expressed in transfected cells; host or cells: CHO-K1
T3 sequence (P35368 1-520): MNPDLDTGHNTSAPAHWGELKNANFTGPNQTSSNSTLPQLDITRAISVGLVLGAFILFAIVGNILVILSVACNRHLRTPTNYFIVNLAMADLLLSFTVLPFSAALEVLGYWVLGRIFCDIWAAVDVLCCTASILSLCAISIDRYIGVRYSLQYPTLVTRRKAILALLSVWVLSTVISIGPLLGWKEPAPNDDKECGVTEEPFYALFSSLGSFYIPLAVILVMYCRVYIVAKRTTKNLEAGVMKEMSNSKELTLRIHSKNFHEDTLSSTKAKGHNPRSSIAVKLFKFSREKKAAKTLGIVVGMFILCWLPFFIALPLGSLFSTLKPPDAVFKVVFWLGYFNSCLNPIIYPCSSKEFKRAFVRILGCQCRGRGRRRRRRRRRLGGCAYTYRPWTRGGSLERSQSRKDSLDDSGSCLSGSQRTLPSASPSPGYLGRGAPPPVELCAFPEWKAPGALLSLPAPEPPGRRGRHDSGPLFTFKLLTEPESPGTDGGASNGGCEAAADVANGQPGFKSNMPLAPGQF

[11] = biological target: T3, human α1B‐adrenoceptor; experiment: ^3H‐cAMP accumulation, CHO‐α1B cells; type: cell-based; conditions: CHO‐α1B cells; % forskolin maximum response
[12] = biological target: T2, human α1D‐adrenoceptor (full length); experiment: ^3H‐prazosin whole‐cell radioligand binding, CHO‐α1D cells
[13] = biological target: T3, human α1B‐adrenoceptor; experiment: Intracellular free calcium mobilization, CHO‐α1B cells; type: cell-based
[14] = biological target: T1, human α1A‐adrenoceptor; experiment: ^3H‐prazosin whole‐cell radioligand binding, CHO‐α1A cells
[15] = biological target: T3, human α1B‐adrenoceptor; experiment: ^3H‐prazosin whole‐cell radioligand binding, CHO‐α1B cells
[16] = Cricetulus griseus, CHO cells without transfected receptors, maximal response as % of PDBu (10μM) response, mean ± s.e.m.
[17] = CHO cells without transfected receptors, response at maximum concentration used (c2), as % of ionomycin (10μM) response, mean ± s.e.m.
[18] = CHO‐α1A cells, maximal response as % of 10 µM ionomycin
[19] = CHO‐α1A cells, % of 10 µM PDBu, ^a bi‐phasic: initial stimulatory part
[20] = CHO‐α1D cells, maximal response as % of PDBu
[21] = CHO cells without transfected receptors
[22] = 3H‐prazosin binding Log KD, CHO‐α1D cells, whole‐cell binding (from Table 1), log values given negative
[23] = CHO‐α1D cells, given as log KD (negative), mean ± SEM, 'early plateau' = specific binding not fully inhibited
[24] = CHO cells without transfected receptors, maximal response as % of PDBu (10μM) response, mean ± s.e.m.
[25] = CHO‐α1D cells, log values given negative

Row | Compound | cAMP accumulation % forskolin [1] [%] | Emax [2, 16] [%] | ERK1/2‐phosphorylation response in parent CHO cells [2] | Emax [3, 17] [%] | Intracellular calcium release % ionomycin [4, 18] [%] | ERK1/2‐phosphorylation % PDBu [6, 19] [%] | ERK1/2‐phosphorylation % PDBu [7, 20] | Intracellular calcium release % ionomycin ([9]; CHO‐α1D cells) | ERK1/2‐phosphorylation % PDBu [10] [%] | cAMP accumulation (in presence of forskolin) % forskolin-stim cAMP at 100μM [5, 21] [%] | ERK1/2‐phosphorylation % PDBu [6] [%] | cAMP accumulation % forskolin [11] | Kd [12, 22] [nM] | Kd [12, 23] [nM] | ERK1/2‐phosphorylation % PDBu at 100 µM [7] | ERK1/2-phosphorylation Log EC50 [2] | Intracellular calcium release % ionomycin [4] [%] | Affinity selectivity ratio α1B vs α1D [12] [fold] | Intracellular calcium release % Ionomycin at 100 µM [9] [%] | Affinity selectivity ratio α1A vs α1B [14] [fold] | also measured
1 | Cc1cc(C(C)(C)C)c(O)c(C)c1CC1=NCCN1 [Oxymethazoline] | 43.9 ± 5.2 | 46.7 ± 6 | stimulated ERK1/2‐phosphorylation responses | 3.1 ± 0.9 | 54.5 ± 2.5 | 92.8 ± 2.7 | 48.6 ± 5.4% | 7.6 ± 1.0% |  |  |  |  |  |  |  |  |  |  |  |  | EC50 ([2]; Cricetulus griseus, CHO cells without transfected receptors, mean ± s.e.m.): 11 nM; % inhibition of forskolin-stimulated cAMP ([5]; CHO cells without transfected receptors, footnote *: % inhibition): 18.1 ± 2.2%; IC50 ([5]; Cricetulus griseus, CHO cells without transfected receptors, footnote *: log IC50, read-out: log IC50, decrease in forskolin-stimulated cAMP accumulation (converted)): 19.5 nM; Effect on cAMP accumulation in the presence of forskolin, parent cells ([5]; untransfected cells): decrease in cAMP accumulation; % inhibition of forskolin‐stimulated cAMP ([8]; CHO‐α1D cells, decrease in forskolin‐stimulated cAMP accumulation (footnote b)): *28.7 ± 2.9%; Effect on cAMP accumulation in the presence of forskolin, CHO‐α1D cells ([8]; listed as Oxymetazoline): decrease in cAMP accumulation; Effect on cAMP accumulation in the presence of forskolin, CHO‐α1D cells ([8]; listed as oxymetazoline): inhibitory cAMP response
2 | Cc1cccc(Cc2c[nH]cn2)c1C [Detomidine] | 17.3 ± 1.9 |  |  | 4.3 ± 1.7 |  |  |  |  | 31.5 ± 5.4 | 83.2 ± 4.9 | 84.2 ± 3.8 | 2.8 ± 0.6% | 977 | 977 | 12.3 ± 2.4% |  |  |  |  |  | Emax at 100 µM ([2]; Cricetulus griseus, CHO, read-out: ERK1/2-phosphorylation % PDBu at 100μM): 6.1 ± 4%
3 | Cc1cccc(C)c1N=C1NCCCS1 [Xylazine] |  |  |  |  |  |  |  |  | 26.4 ± 5.8 |  | 78.6 ± 5.8 |  |  |  |  | No response | 45.1 ± 2.2 | 21.9 | 3.8 ± 0.8 | 18.2 | ERK1/2-phosphorylation % PDBu [2]: No response; EC50 [10]: 6760 nM; Emax ([3]; CHO): 2.3 ± 0.3%; EC50 [13]: 4680 nM; Intracellular calcium release % ionomycin [13]: 30.4 ± 3.9%; Log efficacy ratio KD /EC50 [13]: 2.11; EC50 [4]: 1200 nM; Log efficacy ratio KD /EC50 [4]: 1.44; EC50 [6]: 2040 nM; Affinity selectivity ratio α1A vs α1D [12]: 1.2 fold; Kd [12]: 27500 nM; ERK1/2‐phosphorylation % PDBu [7]: No response; ERK1/2‐phosphorylation Log EC50 [7]: No response; Kd [14]: 33100 nM; Kd [15]: 603000 nM
4 | O=C1CC2(CCCC2)CC(=O)N1CCCCN1CCN(c2ncccn2)CC1 [Buspirone] | 3.3 ± 0.06 |  |  | 3.1 ± 2.3 | 46.7 ± 3.0 | 47.3 ± 10.6 | 11.3 ± 2.5% | 9.0 ± 1.5% |  | 113.6 ± 5.2 |  |  |  |  |  |  |  |  |  |  | ERK1/2-phosphorylation % PDBu [2, 24]: No response; ERK1/2‐phosphorylation % PDBu ([10]; CHO‐α1B cells, maximal response as % PDBu response, for bi‐phasic responses the initial stimulatory part): 47.2 ± 8.6%; Intracellular calcium release % ionomycin ([13]; CHO‐α1B cells, maximal response as % of 10 µM ionomycin response): 47.8 ± 3.2%
5 | CC(CCc1ccccc1)NCC(O)c1ccc(O)c(C(N)=O)c1 (centres unmarked) [Labetolol] | 4.5 ± 0.6 | 25.9 ± 3.4 | stimulated ERK1/2‐phosphorylation responses | 10.3 ± 3.1 |  |  |  |  | 22.9 ± 6.3 |  | 71.3 ± 5.2 | No response |  |  | 36.5 ± 5.2 ^a % |  | 36.9 ± 3.7 |  | 8.1 ± 1.6 |  | EC50 ([2]; Cricetulus griseus, CHO): 2400 nM; Intracellular calcium release % Ionomycin at 100 µM [13]: 2.5 ± 1.2%; cAMP accumulation (in presence of forskolin) Log EC50 [5]: No response
6 | OCc1cc(C(O)CNCCCCCCOCCCCc2ccccc2)ccc1O (centres unmarked) [Salmeterol] |  |  |  | 3.2 ± 1.4 |  |  | No response | No response |  |  |  |  | 1700 | 1700 |  | No response |  | 4.4 |  | 9.5 | ERK1/2-phosphorylation % PDBu [2, 24]: No response; Intracellular calcium release % ionomycin at 10 µM ([13]; CHO‐α1B cells, response at 10 µM ligand (no EC50 given), % of ionomycin response): 15.2 ± 4.0%; Intracellular calcium release % ionomycin at 10 µM [4]: 28.2 ± 2.7%; ERK1/2‐phosphorylation Log EC50 [7, 25]: No response; Intracellular calcium release Log EC50 [9, 25]: No response; Kd [14]: 776 nM; Kd ([15]; CHO‐α1B cells, given as log KD (negative), mean ± SEM): 7410 nM; Kd ([15]; Log KD, ^3H‐prazosin binding, CHO‐α1B cells, whole‐cell binding (from Table 1), given as log KD (negative numbers)): 7410 nM

From publication PMC8343220, “The selectivity of α‐adrenoceptor agonists for the human α1A, α1B, and α1D‐adrenoceptors” (Pharmacology Research & Perspectives, 2021)
